pIC50: −log10 of the molar value. “Also recorded” adds a separate entry of the source.
Experiments:
Type in all cases: in vitro ADME
CYP2B6 = target: T1, CYP2B6 (Homo sapiens, UniProt P20813); experiment: Fluorescence-based CYP assay, recombinant CYP2B6, substrate EFC
T1 sequence (P20813 1-491): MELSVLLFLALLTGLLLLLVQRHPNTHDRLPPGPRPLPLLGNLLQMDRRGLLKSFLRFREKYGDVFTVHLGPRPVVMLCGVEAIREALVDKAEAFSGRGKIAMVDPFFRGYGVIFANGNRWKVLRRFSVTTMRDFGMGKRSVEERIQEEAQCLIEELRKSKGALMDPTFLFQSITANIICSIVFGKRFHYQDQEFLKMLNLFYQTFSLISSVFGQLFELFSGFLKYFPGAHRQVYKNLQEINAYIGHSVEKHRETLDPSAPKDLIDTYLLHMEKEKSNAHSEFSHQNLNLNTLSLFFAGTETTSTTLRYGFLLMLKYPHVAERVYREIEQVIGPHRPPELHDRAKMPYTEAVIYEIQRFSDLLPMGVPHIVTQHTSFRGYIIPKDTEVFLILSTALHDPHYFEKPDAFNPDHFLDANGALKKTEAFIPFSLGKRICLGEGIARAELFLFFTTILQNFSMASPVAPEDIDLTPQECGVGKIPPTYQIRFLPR
Method: (§1) These assays were performed by methods similar to those described by VanAlstine and Hough, Stresser et al., Wulff et al., Henderson et al., and Crespi et al., with minor modifications. All incubations were performed in a final volume of 200 µL of 50 mM potassium phosphate buffer at pH 7.4 containing 1% acetonitrile. CYP inhibitor studies were performed according to the parameters of Table 1. Substrate concentrations were chosen to be near known Km values. As described in the references cited, two different NADPH regenerating systems were used depending on the substrates used (Table 1). Inhibitors were added to either “low” NADPH-regenerating system (final concentration of 8.1 µM NADP^+, 0.4 mM glucose-6-phosphate, 0.4 mM magnesium chloride, 0.2 U/mL glucose-6-phosphate dehydrogenase) or to “high” NADPH-regenerating system (final concentration of 1.3 mM NADP^+, 3.3 mM glucose-6-phosphate, 3.3 mM magnesium chloride, 0.4 U/mL glucose-6-phosphate dehydrogenase) in a total of 0.1 mL buffer. […] For assays utilizing “low” regenerating systems, product formation was monitored continuously by a Victor3 1420 Multilabel Plate Counter at the designated wavelengths (Table 1). […] Product formation was then measured at the designated wavelengths (Table 1). […]

CYP2C11 = target: T2, CYP2C11 (Rattus norvegicus, UniProt P08683); experiment: Fluorescence-based CYP assay, recombinant CYP2C11, substrate DBF
T2 sequence (P08683 1-500): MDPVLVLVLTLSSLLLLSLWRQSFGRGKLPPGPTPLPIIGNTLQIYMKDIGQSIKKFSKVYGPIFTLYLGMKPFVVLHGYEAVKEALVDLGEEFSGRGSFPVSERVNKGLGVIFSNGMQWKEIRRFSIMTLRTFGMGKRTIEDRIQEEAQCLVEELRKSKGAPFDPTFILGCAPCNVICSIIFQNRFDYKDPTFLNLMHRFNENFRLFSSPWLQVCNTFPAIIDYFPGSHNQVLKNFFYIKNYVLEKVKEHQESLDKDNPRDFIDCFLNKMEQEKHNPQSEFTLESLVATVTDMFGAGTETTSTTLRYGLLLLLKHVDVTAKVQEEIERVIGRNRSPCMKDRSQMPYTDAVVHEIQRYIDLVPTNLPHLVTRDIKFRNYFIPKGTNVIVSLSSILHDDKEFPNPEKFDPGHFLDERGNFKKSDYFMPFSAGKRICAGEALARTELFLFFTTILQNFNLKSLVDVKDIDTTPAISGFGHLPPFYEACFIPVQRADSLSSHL
Method: as §1

CYP1A2r = target: T3, CYP1A2r (Rattus norvegicus, UniProt P04799); experiment: Fluorescence-based CYP assay, recombinant CYP1A2r, substrate EFC
T3 sequence (P04799 1-513): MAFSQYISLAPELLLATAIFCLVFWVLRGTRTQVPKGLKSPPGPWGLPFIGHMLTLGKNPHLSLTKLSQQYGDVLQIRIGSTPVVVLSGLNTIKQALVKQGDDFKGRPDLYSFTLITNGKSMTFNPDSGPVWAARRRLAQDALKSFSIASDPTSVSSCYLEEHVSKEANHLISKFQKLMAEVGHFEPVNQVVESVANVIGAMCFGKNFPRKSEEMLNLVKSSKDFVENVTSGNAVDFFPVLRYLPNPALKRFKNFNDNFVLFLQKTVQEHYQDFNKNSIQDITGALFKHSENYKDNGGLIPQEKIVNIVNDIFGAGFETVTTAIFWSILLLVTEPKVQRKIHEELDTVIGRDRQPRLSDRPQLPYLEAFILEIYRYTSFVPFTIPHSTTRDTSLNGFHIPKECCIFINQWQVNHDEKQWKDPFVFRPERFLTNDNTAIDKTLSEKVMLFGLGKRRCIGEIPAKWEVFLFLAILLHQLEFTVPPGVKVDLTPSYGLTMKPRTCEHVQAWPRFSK
Method: These assays were performed by methods similar to those described by VanAlstine and Hough, Stresser et al., Wulff et al., Henderson et al., and Crespi et al., with minor modifications. All incubations were performed in a final volume of 200 µL of 50 mM potassium phosphate buffer at pH 7.4 containing 1% acetonitrile. CYP inhibitor studies were performed according to the parameters of Table 1. Substrate concentrations were chosen to be near known Km values. As described in the references cited, two different NADPH regenerating systems were used depending on the substrates used (Table 1). […] Samples were pre-incubated at 37°C for the designated times, and the reactions were initiated with the addition of a substrate and enzyme mixtures (Table 1). […] For the assays utilizing the “high” regenerating system, enzyme reactions were terminated at the designated time by the addition of 75 µL of 2N NaOH, followed by a 2 h post-incubation at 37°C. Product formation was then measured at the designated wavelengths (Table 1). For the “low” regenerating system assays, blanks and standards were prepared in 0.1 mL buffer without the regenerating system. For the “high” regenerating system assays, blanks and standards containing 0.1 mL of buffer received 75 µL of 2N NaOH following pre-incubation.

SMILES	Inhibition of CYP2B6 (in words) (CYP2B6; positive control)	Inhibition of CYP2C11 (in words) (CYP2C11; positive control)	Inhibition of CYP1A2r (in words) (CYP1A2r; clotrimazole concentration-response, Fig. 1C)	pIC50 (CYP2B6)	pIC50 (CYP2C11)	pIC50 (CYP1A2r)	Inhibition of CYP1A2r (in words) (CYP1A2r; concentrations up to 80 µM)
Clc1ccccc1C(c1ccccc1)(c1ccccc1)n1ccnc1 [Clotrimazole]	potent inhibitor	potent inhibitor	only partly inhibited	–	–	–	–
Clc1ccccc1C(c1ccccc1)(c1ccccc1)n1cccn1 [TRAM-34, 1-[(2-chlorophenyl)diphenylmethyl]-1H-pyrazole]	–	–	–	6.05	4.90	< 4.10	no inhibition; also recorded: no inhibitory effects

Source: article PMC3646888 (PLoS ONE, 2013)
